The values that follow come from US9546173B2 (Novartis AG, priority 2012, dated 2017).

activated ERK2, sequence (P28482 whole entry): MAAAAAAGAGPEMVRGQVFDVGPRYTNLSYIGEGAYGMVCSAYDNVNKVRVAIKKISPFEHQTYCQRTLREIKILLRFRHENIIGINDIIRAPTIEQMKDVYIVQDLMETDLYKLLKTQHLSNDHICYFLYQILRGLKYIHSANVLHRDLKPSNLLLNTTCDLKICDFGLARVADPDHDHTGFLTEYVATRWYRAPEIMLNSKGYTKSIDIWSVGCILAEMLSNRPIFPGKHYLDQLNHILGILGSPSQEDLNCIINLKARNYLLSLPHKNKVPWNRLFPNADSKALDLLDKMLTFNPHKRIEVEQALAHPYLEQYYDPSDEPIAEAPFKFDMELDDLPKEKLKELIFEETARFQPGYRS

The target of the assay is activated ERK2 (Homo sapiens (Human), UniProt P28482). Put plainly: Activated ERK2 kinase assay (AlphaScreen, ERKtide peptide phosphorylation). It counts as biochemical. The note with it: […] ERK2, 200 nM ERKtide peptide, 35 μM ATP, 30 min preincubation; read-out: ERK2 IC50. The source says: Production of Activated ERK2 Protein:
Activated ERK2 protein was generated in insect cells by co-expression with a constitutively active form of MEK1. The ERK2 protein was expressed and purified as a nHis-PreScission-ERK2 tagged protein and then proteolytically processed to the full-length wild-type protein. […] Double-phosphorylated ERK2 protein was purified from the mixture by mono-Q column separation.
Activated ERK2 Kinase Assay:
A 16-point, half-log dilution series of compounds at 41× final concentration was used for generating IC50 curves. Compound dilution series were prepared in 100% DMSO. ERK2 was preincubated with compounds for 30 minutes at ambient temperature. Reaction was initiated by addition of a substrate cocktail of ERKtide peptide and ATP and was allowed to proceed for 2-3 hours at ambient temperature. Reaction was terminated by addition of 10 μL of a 2× stop buffer consisting of 100 mM Tris-Cl [pH 7.5], 25 mM EDTA, 0.01% Tween 20, 10 μg/mL of AlphaScreen Protein A Acceptor Beads, 10 μg/mL of Streptavidin Donor Beads (PerkinElmer, Waltham, Mass.), and 1.4 μg/mL phospho-EGF Receptor (Thr669) antibody (Cat #3056, Cell Signaling Technology, Danvers, Mass.). Terminated reactions were read, after overnight incubation in the dark, on an EnVision Multilabel Plate Reader (PerkinElmer, Waltham, Mass.), with excitation and emission wavelengths set to 680 nm and 570 nm, respectively. IC50 values were determined using a four-parameter fit.
(In general: Alpha assays give light when donor and acceptor beads are brought close together.)
A word on the IC50: it is the concentration at which inhibition is half-maximal. With `CC1(C)c2cnc(N[C@H]3C[C@@H](O)C3)nc2CN1C(=O)N[C@H](CO)c1ccccc1` [compound 55, N-((S)-2-hydroxy-1-phenylethyl)-2-(((1s,3R)-3-hydroxycyclobutyl)amino)-5,5-dimethyl-5H-pyrrolo[3,4-d]pyrimidine-6(7H)-carboxamide], the IC50 turned out to be 677 nM.

Turning to `CC(=O)NCCNc1ncc2c(n1)CN(C(=O)N[C@H](CO)c1ccccc1)C2(C)C` [compound 56, (S)-2-((2-acetamidoethyl)amino)-N-(2-hydroxy-1-phenylethyl)-5,5-dimethyl-5H-pyrrolo[3,4-d]pyrimidine-6(7H)-carboxamide], the IC50 stood at 3500 nM.

With `COCCNc1ncc2c(n1)CN(C(=O)N[C@H](CO)c1ccccc1)C2(C)C` [compound 57, (S)-N-(2-hydroxy-1-phenylethyl)-2-((2-methoxyethyl)amino)-5,5-dimethyl-5H-pyrrolo[3,4-d]pyrimidine-6(7H)-carboxamide], the IC50 is 3480 nM.

On to `CC1(C)c2cnc(NCCC#N)nc2CN1C(=O)N[C@H](CO)c1ccccc1` [compound 58, (S)-2-((2-cyanoethyl)amino)-N-(2-hydroxy-1-phenylethyl)-5,5-dimethyl-5H-pyrrolo[3,4-d]pyrimidine-6(7H)-carboxamide], for which the IC50 was 1530 nM.

Take `CC1(C)c2cnc(N[C@H]3C[C@H](O)C3)nc2CN1C(=O)N[C@H](CO)c1ccccc1` [compound 59, N-((S)-2-hydroxy-1-phenylethyl)-2-(((1r,3S)-3-hydroxycyclobutyl)amino)-5,5-dimethyl-5H-pyrrolo[3,4-d]pyrimidine-6(7H)-carboxamide]: the IC50 is 839 nM.

Consider `CC1(C)c2cnc(N[C@H]3CC[C@H](O)CC3)nc2CN1C(=O)N[C@H](CO)c1ccccc1` [compound 60, N-((S)-2-hydroxy-1-phenylethyl)-2-(((1r,4S)-4-hydroxycyclohexyl)amino)-5,5-dimethyl-5H-pyrrolo[3,4-d]pyrimidine-6(7H)-carboxamide], for which the 50% inhibitory concentration (IC50) amounted to 82 nM.

`CN1CCC(Nc2ncc3c(n2)CN(C(=O)N[C@H](CO)c2ccccc2)C3(C)C)CC1` [compound 61, (S)-N-(2-hydroxy-1-phenylethyl)-5,5-dimethyl-2-((1-methylpiperidin-4-yl)amino)-5H-pyrrolo[3,4-d]pyrimidine-6(7H)-carboxamide]: the IC50 came to 21000 nM.

As for `CC1(C)c2cnc(N[C@H]3CC[C@@H](O)CC3)nc2CN1C(=O)N[C@H](CO)c1ccccc1` [compound 62, N-((S)-2-hydroxy-1-phenylethyl)-2-(((1s,4R)-4-hydroxycyclohexyl)amino)-5,5-dimethyl-5H-pyrrolo[3,4-d]pyrimidine-6(7H)-carboxamide], the IC50 came to 896 nM.

For `CC(=O)N1CC[C@H](Nc2ncc3c(n2)CN(C(=O)N[C@H](CO)c2ccccc2)C3(C)C)C1` [compound 63, 2-(((S)-1-acetylpyrrolidin-3-yl)amino)-N-((S)-2-hydroxy-1-phenylethyl)-5,5-dimethyl-5H-pyrrolo[3,4-d]pyrimidine-6(7H)-carboxamide], the half-inhibitory concentration (IC50) amounted to 3560 nM.

With `CC(=O)N1CC[C@@H](Nc2ncc3c(n2)CN(C(=O)N[C@H](CO)c2ccccc2)C3(C)C)C1` [compound 64, 2-(((R)-1-acetylpyrrolidin-3-yl)amino)-N-((S)-2-hydroxy-1-phenylethyl)-5,5-dimethyl-5H-pyrrolo[3,4-d]pyrimidine-6(7H)-carboxamide], the concentration for half-maximal inhibition (IC50) was determined as 740 nM.

Regarding `COC(=O)N1CC[C@H](Nc2ncc3c(n2)CN(C(=O)N[C@H](CO)c2ccccc2)C3(C)C)C1` [compound 65, (S)-methyl 3-((6-(((S)-2-hydroxy-1-phenylethyl)carbamoyl)-5,5-dimethyl-6,7-dihydro-5H-pyrrolo[3,4-d]pyrimidin-2-yl)amino)pyrrolidine-1-carboxylate], the IC50 came to 8830 nM.

With `COC(=O)N1CC[C@@H](Nc2ncc3c(n2)CN(C(=O)N[C@H](CO)c2ccccc2)C3(C)C)C1` [compound 66, (R)-methyl 3-((6-(((S)-2-hydroxy-1-phenylethyl)carbamoyl)-5,5-dimethyl-6,7-dihydro-5H-pyrrolo[3,4-d]pyrimidin-2-yl)amino)pyrrolidine-1-carboxylate], the half-maximal inhibitory concentration (IC50) was 30 nM.

Consider `CO[C@H]1CC[C@H](Nc2ncc3c(n2)CN(C(=O)N[C@H](CO)c2ccccc2)C3(C)C)CC1` [compound 67, N-((S)-2-hydroxy-1-phenylethyl)-2-(((1r,4S)-4-methoxycyclohexyl)amino)-5,5-dimethyl-5H-pyrrolo[3,4-d]pyrimidine-6(7H)-carboxamide], for which the half-maximal inhibitory concentration (IC50) turned out to be 68 nM.

Turning to `CC(=O)N1CC2C(C1)C2Nc1ncc2c(n1)CN(C(=O)N[C@H](CO)c1ccccc1)C2(C)C` (stereo partly drawn) [compound 68, 2-((3-acetyl-3-azabicyclo[3.1.0]hexan-6-yl)amino)-N-((S)-2-hydroxy-1-phenylethyl)-5,5-dimethyl-5H-pyrrolo[3,4-d]pyrimidine-6(7H)-carboxamide], the half-maximal inhibitory concentration (IC50) is 450 nM.

Turning to `CC(=O)N1CC(Nc2ncc3c(n2)CN(C(=O)N[C@H](CO)c2ccccc2)C3(C)C)C1` [compound 69, (S)-2-((1-acetylazetidin-3-yl)amino)-N-(2-hydroxy-1-phenylethyl)-5,5-dimethyl-5H-pyrrolo[3,4-d]pyrimidine-6(7H)-carboxamide], the 50% inhibitory concentration (IC50) worked out at 5580 nM.

On to `CC1(C)c2cnc(NC3CCS(=O)(=O)C3)nc2CN1C(=O)N[C@H](CO)c1ccccc1` (stereo partly drawn) [compound 70, 2-((1,1-dioxidotetrahydrothiophen-3-yl)amino)-N-((S)-2-hydroxy-1-phenylethyl)-5,5-dimethyl-5H-pyrrolo[3,4-d]pyrimidine-6(7H)-carboxamide], for which the IC50 was 932 nM.

For `Cn1ccc(Nc2ncc3c(n2)CN(C(=O)N[C@H](CO)c2ccccc2)C3(C)C)n1` [compound 71, (S)-N-(2-hydroxy-1-phenylethyl)-5,5-dimethyl-2-((1-methyl-1H-pyrazol-3-yl)amino)-5H-pyrrolo[3,4-d]pyrimidine-6(7H)-carboxamide], the concentration for half-maximal inhibition (IC50) stood at 2550 nM.

Regarding `CC1(C)c2cnc(NCC3CCCCO3)nc2CN1C(=O)N[C@H](CO)c1ccccc1` (stereo partly drawn) [compound 72, N-((S)-2-hydroxy-1-phenylethyl)-5,5-dimethyl-2-(((tetrahydro-2H-pyran-2-yl)methyl)amino)-5H-pyrrolo[3,4-d]pyrimidine-6(7H)-carboxamide], the half-inhibitory concentration (IC50) amounted to 5310 nM.

On to `CC(Nc1ncc2c(n1)CN(C(=O)N[C@H](CO)c1ccccc1)C2(C)C)C1CCCO1` (stereo partly drawn) [compound 73, N-((S)-2-hydroxy-1-phenylethyl)-5,5-dimethyl-2-((1-(tetrahydrofuran-2-yl)ethyl)amino)-5H-pyrrolo[3,4-d]pyrimidine-6(7H)-carboxamide], for which the 50% inhibitory concentration (IC50) was 315 nM.

Consider `CC(C)Nc1ncc2c(n1)CN(C(=O)N[C@H](CO)c1ccccc1)C2(C)C` [compound 74, (S)-N-(2-hydroxy-1-phenylethyl)-2-(isopropylamino)-5,5-dimethyl-5H-pyrrolo[3,4-d]pyrimidine-6(7H)-carboxamide], for which the IC50 is 122 nM.

Consider `CC1(C)c2cnc(NCC3CCCO3)nc2CN1C(=O)N[C@H](CO)c1ccccc1` (stereo partly drawn) [compound 75, N-((S)-2-hydroxy-1-phenylethyl)-5,5-dimethyl-2-(((tetrahydrofuran-2-yl)methyl)amino)-5H-pyrrolo[3,4-d]pyrimidine-6(7H)-carboxamide], for which the IC50 turned out to be 2640 nM.

As to `O=C(NCc1ccc(Cl)cc1)N1Cc2nc(NC3CCOCC3)ncc2C12CCC2` [compound 76, N-(4-chlorobenzyl)-2′-((tetrahydro-2H-pyran-4-yl)amino)spiro[cyclobutane-1,5′-pyrrolo[3,4-d]pyrimidine]-6′(7′H)-carboxamide], the IC50 is 31 nM.

As to `O=C(N[C@H](CO)c1ccccc1)N1Cc2nc(NC3CCOCC3)ncc2C12CCC2` [compound 77, (S)-N-(2-hydroxy-1-phenylethyl)-2′-((tetrahydro-2H-pyran-4-yl)amino)spiro[cyclobutane-1,5′-pyrrolo[3,4-d]pyrimidine]-6′(7′H)-carboxamide], the IC50 stood at 13 nM.

As for `CCC1(C)c2cnc(NC3CCOCC3)nc2CN1C(=O)NCc1ccc(Cl)cc1` (stereo not drawn) [compound 78, N-(4-chlorobenzyl)-5-ethyl-5-methyl-2-((tetrahydro-2H-pyran-4-yl)amino)-5H-pyrrolo[3,4-d]pyrimidine-6(7H)-carboxamide], the IC50 was found to be 22 nM.

Consider `CC[C@@]1(C)c2cnc(NC3CCOCC3)nc2CN1C(=O)N[C@H](CO)c1ccccc1` [compound 79, (S)-5-ethyl-N-((S)-2-hydroxy-1-phenylethyl)-5-methyl-2-((tetrahydro-2H-pyran-4-yl)amino)-5H-pyrrolo[3,4-d]pyrimidine-6(7H)-carboxamide], for which the half-inhibitory concentration (IC50) is 971 nM.

Consider `CC[C@]1(C)c2cnc(NC3CCOCC3)nc2CN1C(=O)N[C@H](CO)c1ccccc1` [compound 80, (R)-5-ethyl-N-((S)-2-hydroxy-1-phenylethyl)-5-methyl-2-((tetrahydro-2H-pyran-4-yl)amino)-5H-pyrrolo[3,4-d]pyrimidine-6(7H)-carboxamide], for which the 50% inhibitory concentration (IC50) stood at 22 nM.

For the molecule `CC1(C)c2cnc(N[C@H]3CC[C@H](C#N)CC3)nc2CN1C(=O)N[C@H](CO)c1ccccc1` [compound 81, 2-(((1r,4S)-4-cyanocyclohexyl)amino)-N-((S)-2-hydroxy-1-phenylethyl)-5,5-dimethyl-5H-pyrrolo[3,4-d]pyrimidine-6(7H)-carboxamide], the half-maximal inhibitory concentration (IC50) is 114 nM.
